Patent publication US12343355B2, “Methods for decreasing the incidence of necrotizing enterocolitis in infants, toddlers, or children using human milk oligosaccharides” (ABBOTT LABORATORIES, priority 2010, dated 2025)

Assays:
B. infantis ATCC 15697 = experiment: Bacterial growth assay (OD600); type: cell-based, Bifidobacterium infantis; conditions: carbohydrate 1% in sMRS+cysteine
Method: (§1) Subsequently, the cultures are passed twice on a semi-synthetic MRS medium ([…] which is supplemented with 1% (w/v) filter-sterilized glucose as the sole carbohydrate source. […] [table] After the 2nd pass in sMRS+glucose+cysteine, the cultures are washed once with 10 mL of sterile sMRS+cysteine (no carbohydrate), resuspended in 10 ml of sterile sMRS+ cysteine (no carbohydrate) and then used as a 1% inoculum. […] Cell growth is performed in 250 uL of sMRS+cysteine covered with 50 uL of mineral oil in a Bioscreen 100-well Honeycomb plate. Cell growth is monitored by measuring optical density at 600 nm (OD600) using a Bioscreen C Automated Microbiology Growth Curve Analysis System. The plate reader is operated in discontinuous mode, with absorbance readings performed in 30-minute intervals, and preceded by 30-second shaking intervals at maximum speed. Controls consist of inoculated medium lacking carbohydrate. […] All three plates include a positive control (glucose) and negative control (no carbohydrate). The OD600 data for each carbohydrate is corrected by subtracting the OD600 of the basal media (sMRS)+cysteine from the sample plate for each probiotic. Maximum OD is determined by inspection of the corrected growth data. OD is determined by subtracting the initial corrected OD (time point 0) from the maximum corrected OD. Samples are grown in biologically independent triplicates and the resulting growth kinetic data are expressed as the mean of these replicates. For the growth curve plots, OD600 vs. time is first plotted for the bacteria grown on medium lacking carbohydrate (sMRS). For all other carbohydrates, the OD600 data is corrected by subtracting the OD600 of sMRS.

B. infantis M-63 = experiment: Bacterial growth assay (OD600); type: cell-based, Bifidobacterium infantis; conditions: carbohydrate 1% in sMRS+cysteine
Method: as §1

Caco-2 cells [1] = experiment: Sucrase activity in Caco-2 cells; type: cell-based, human; conditions: 72 hours, various levels
[2] = tested on: diluted feces of infants (fecal inoculum); experiment: In vitro fermentation model simulating large bowel fermentation, infant fecal inoculum (pH, SCFA, fermentation rate); type: cell-based; conditions: for pH change from baseline: at 3, 6, and 12 h after inoculation, compared among substrates
HT-29 cells = experiment: Alkaline phosphatase activity in HT-29 cells (cell differentiation); conditions: 72 hours
Caco-2 cells [3] = experiment: Transepithelial resistance of Caco-2 cells (Ussing chambers); type: cell-based, human; conditions: more mature Caco-2 cells
Excerpt: FIGS. 20-22 illustrate the effect of LNnT, 2′FL, and 6′SL on cell resistance (transepithelial resistance), which is a marker for epithelial barrier function, wherein a higher resistance is associated with a higher barrier function. Epithelial cell resistance or barrier function is a measure of differentiated epithelial cell function. Specifically, as the cells mature, tighter junctions between the cells are formed resulting in a stronger epithelial cell barrier. This barrier prevents the movement of large molecules, bacteria, or viruses from one side of the barrier to the other, which could improve resistance to infection, sepsis, and NEC. […] Transepithelial resistance was measured using Transwell Snapwell inserts containing the desired cell culture and were transferred to modified Ussing chambers and bathed in modified Kreb's solution at 37 C with 95% oxygen and 5% carbon dioxide. Transepithelial resistance was measured as the passive transport of ions across the monolayers.

B. breve ATCC 15700 = experiment: Bacterial growth assay (OD600); type: cell-based, Bifidobacterium breve; conditions: carbohydrate 1% in sMRS+cysteine
Method: as §1, with “The OD600 data for each carbohydrate is corrected by subtracting the OD600 of the basal media (sMRS)+cysteine from the sample plate for each probiotic.” left out, “For the growth curve plots, OD600 vs. time is first plotted for the bacteria grown on medium lacking carbohydrate (sMRS). For all other carbohydrates, the OD600 data is corrected by subtracting the OD600 of sMRS.” left out

Caco-2 cells [4] = experiment: Alkaline phosphatase activity in Caco-2 cells (cell differentiation); conditions: 72 hours, LNnT or 2′FL 20-2000 mg/L, 6′SL 40-4000 mg/mL
[5] = tested on: Bifidobacterium spp. (12 strains); experiment: Bacterial growth assay (OD600), all bifidobacteria strains tested; type: cell-based; conditions: carbohydrate 1% in sMRS+cysteine
Method: as §1

enteric nerve cells = experiment: Peristalsis model using luminally perfused mouse colon
Method: In this Example, the effect of 2′-fucosyllactose (2′FL) or 3′-fucosyllactose (3′FL) on stimulating enteric nerve cells in the gastrointestinal tract of rodents is analyzed.
Specifically, a peristalsis model using luminally perfused mouse colon is used to test the stimulation effect of 2′FL or 3′FL on enteric nerve cells. Colon muscle is perfused with 2′FL or 3′FL, at concentrations of 1 mg/mL, 0.5 mg/mL, and 0.1 mg/mL, for 15 minutes. The frequency and amplitude of contractions of the muscle is analyzed.

[6] = LNnT 20-2000 mg/L, 6′SL 40-4000 mg/mL
[7] = colon muscle perfused at 1, 0.5 and 0.1 mg/mL for 15 minutes

CC(=O)N[C@H]1[C@H](O[C@H]2[C@@H](O)[C@@H](CO)O[C@@H](O[C@H]3[C@H](O)[C@@H](O)C(O)O[C@@H]3CO)[C@@H]2O)O[C@H](CO)[C@@H](O[C@@H]2O[C@H](CO)[C@H](O)[C@H](O)[C@H]2O)[C@@H]1O (mixture of isomers) [LNnT, Lacto-N-neotetraose]
growth / ability to ferment (OD600) (B. infantis ATCC 15697): grow well | growth / ability to ferment (OD600) (B. infantis M-63): grow well | sucrase activity per milligram of protein (Caco-2 cells [1]): no apparent effect | fermentation rate [2]: about 4,488 i·tg/g of dry matter/hour | pH change from baseline [2]: greatest | alkaline phosphatase activity per milligram of protein (HT-29 cells; [6]): trend toward an increase | cell resistance (transepithelial resistance) (Caco-2 cells [3]): positive effect on cell resistance | growth / ability to ferment (OD600) (B. breve ATCC 15700): grow well | alkaline phosphatase activity (Caco-2 cells [4]): trend toward an increase

C[C@@H]1O[C@@H](O[C@H]2[C@H](O[C@H]3[C@H](O)[C@@H](O)C(O)O[C@@H]3CO)O[C@H](CO)[C@H](O)[C@@H]2O)[C@@H](O)[C@H](O)[C@@H]1O (stereo partly drawn) [2′FL, 2′-a-L-Fucopyranosyl-D-Lactose]
growth / ability to ferment (OD600) (B. infantis ATCC 15697): able to ferment | growth / ability to ferment (OD600) (B. infantis M-63): able to ferment | growth / ability to ferment (OD600) [5]: Only B. infantis ATCC 15697 and B. infantis M-63 are able to ferment | amplitude of contraction (enteric nerve cells; [7]): reduced consistently and in a dose response fashion | frequency of contraction (enteric nerve cells; [7]): reduced consistently and in a dose response fashion | stimulation of nerve cells (enteric nerve cells; without involving gut microbiota and/or their metabolites): direct stimulation of nerve cells | sucrase activity per milligram of protein (Caco-2 cells [1]): trend toward sucrase activity | fermentation rate [2]: about 4,872 i·tg/g of dry matter/hour | pH change from baseline [2]: greatest | alkaline phosphatase activity per milligram of protein (HT-29 cells; at the high dose (2000 mg/L)): significant increase in alkaline phosphatase activity | alkaline phosphatase activity (Caco-2 cells [4]): trend toward increased alkaline phosphatase activity

CC(=O)N[C@H]1[C@H]([C@H](O)[C@H](O)CO)O[C@@](O[C@H]2[C@@H](O)[C@@H](CO)O[C@@H](O[C@H]3[C@H](O)[C@@H](O)C(O)O[C@@H]3CO)[C@@H]2O)(C(=O)O)C[C@@H]1O (some centres unmarked) [3′SL, 3′-sialyllactose]
growth / ability to ferment (OD600) (B. infantis ATCC 15697): able to ferment | growth / ability to ferment (OD600) (B. infantis M-63): able to ferment | growth / ability to ferment (OD600) [5]: Only B. infantis ATCC 15697 and B. infantis M-63 are able to ferment

CC(=O)N[C@H]1C([C@H](O)[C@H](O)CO)O[C@@](OCC2O[C@@H](O[C@@H]3C(CO)OC(O)C(O)[C@H]3O)C(O)[C@@H](O)[C@H]2O)(C(=O)[O-])C[C@H]1O.[Na+] (some centres unmarked) [6′SL, a-(2-6′)-N-Acetylneuraminyl-lactose sodium salt]
growth / ability to ferment (OD600) (B. infantis ATCC 15697): able to ferment | growth / ability to ferment (OD600) (B. infantis M-63): able to ferment | growth / ability to ferment (OD600) [5]: Only B. infantis ATCC 15697 and B. infantis M-63 are able to ferment | sucrase activity per milligram of protein (Caco-2 cells [1]): no apparent effect | fermentation rate [2]: about 1,809 i·tg/g of dry matter/hour | total SCFA production ([2]; 12 h of fermentation): greater (P<0.05) for the 6′SL and GOS substrates compared to 2′FL | total SCFA production ([2]; after 3 and 6 h of fermentation): lower (P<0.05) with 6′SL compared to GOS | alkaline phosphatase activity per milligram of protein (HT-29 cells; [6]): no apparent effect | alkaline phosphatase activity (Caco-2 cells [4]): no apparent effect

C[C@H](O)[C@@H](O)[C@@H](O)[C@H](O)C=O [L-fucose, L-(−) Fucose, reference compound]
growth / ability to ferment (OD600) (B. infantis ATCC 15697): not able to ferment | growth / ability to ferment (OD600) (B. infantis M-63): not able to ferment | growth / ability to ferment (OD600) [5]: None of the bifidobacteria are able to ferment

CC(=O)N[C@H]1C(O)O[C@H](CO)[C@@H](O)[C@@H]1O (stereo partly drawn) [NAG, N-acetyl-D-glucosamine, reference compound]
growth / ability to ferment (OD600) [5]: Only B. breve ATCC 15700 is able to ferment | growth / ability to ferment (OD600) (B. breve ATCC 15700): able to ferment

O=C(CO)[C@@H](O)[C@H](O)[C@H](O)CO [fructose, D-Fructose]
growth / ability to ferment (OD600) [5]: majority of bifidobacteria is able to ferment

CC(=O)N[C@H]1[C@H]([C@H](O)[C@H](O)CO)OC(O)(C(=O)O)C[C@@H]1O (some centres unmarked) [sialic acid, N-acetylneuraminic acid, reference compound]
growth / ability to ferment (OD600) (B. infantis ATCC 15697): not able to ferment | growth / ability to ferment (OD600) (B. infantis M-63): not able to ferment | growth / ability to ferment (OD600) [5]: None of the bifidobacteria are able to ferment
